Several values for one entry are separate records, joined by “and”; a condition that tells them apart may be missing. Equal entries are not always repeated. Where two headings read alike, the source gives them in different places.
Tests used:
in vitro = details: mouse
[1] = system: PrP^Sc in ScN2a-cl3 cells; format: cell-based, mouse; details: Western immunoblots
N2a-cl3 cells [2] = details: mouse
[3] = system: PrP^Sc in dividing ScN2a-cl3 cells; format: cell-based, mouse; parameters: Dividing ELISA pEC50 (μM) 1st Expt. / Dividing ELISA pEC50 (μM) 2nd Expt. / Dividing ELISA pEC50 (μM) 3rd Expt. / Dividing ELISA pEC50 (μM) Mean: unit not given here
N2a-cl3 cells [4] = experiment: cells; details: Mus musculus, N2a-cl3, read-out: Dividing Calcein EC50 (μM) Mean (n = 3)
[5] = system: PrP^Sc in nondividing ScN2a-cl3 cells; format: cell-based, mouse; details: read-out: Non-Dividing ELISA EC50 (μM) Mean (n = 3); ScN2a-c13 non-dividing cells; mean n = 3
[6] = Hepatic microsomal stability, rat; details: […]
[7] = read-out: EC50 (nM): Western, ScN2a-cl3 cells
[8] = read-out: Potency (nM) Western (EC50), dividing ScN2a-cl3 cells
[9] = read-out: EC50 (nM): ELISA, dividing ScN2a-cl3 cells
[10] = read-out: Potency (nM) ELISA (EC50), PrP^Sc ELISA, dividing ScN2a-cl3 cells
[11] = read-out: Antiprion activity EC50, thienopyridine analogs
[12] = read-out: Dividing ELISA EC50 (μM) 3rd Expt., ScN2a-cl3 dividing cells, 3rd determination
[13] = ScN2a-cl3 dividing cells, 1st determination
[14] = ScN2a-cl3 dividing cells, 2nd determination
[15] = ScN2a-cl3 dividing cells, 3rd determination
[16] = ScN2a-cl3 dividing cells, mean of three determinations
[17] = read-out: Dividing ELISA EC50 (μM) 1st Expt., ScN2a-cl3 dividing cells, 1st determination
[18] = read-out: Dividing ELISA EC50 (μM) 2nd Expt., ScN2a-cl3 dividing cells, 2nd determination
[19] = read-out: Dividing ELISA EC50 (μM) Mean, ScN2a-cl3 dividing cells, mean of three determinations

SMILES | CC50 (in vitro) | EC50 [3, 11] | EC50 (N2a-cl3 cells [4]) | EC50 [5] | EC50 [3, 12] | Dividing ELISA pEC50 (μM) 1st Expt. [3, 13] | Dividing ELISA pEC50 (μM) 2nd Expt. [3, 14] | Dividing ELISA pEC50 (μM) 3rd Expt. [3, 15] | Dividing ELISA pEC50 (μM) Mean [3, 16] | EC50 [3, 17] | EC50 [3, 18] | EC50 [3, 19] | melting point | further results
c1ccc2cc(-c3cn4ccsc4n3)ccc2c1 [IND-009413] | > 10000 nM | – | – | – | – | – | – | – | – | – | – | – | – | EC50 [1, 7]: 2490 nM; EC50 [1, 8]: 2490 nM; EC50 (nM): Calcein (LC50 values from calcein assays) (N2a-cl3 cells [2]): MW: 250.2 EC50 (nM): ELISA: 6015 Calcein: >10,000 Western: 2490; EC50 [3, 9]: 6020 nM; EC50 [3, 10]: 6020 nM
CCc1ccc(-c2cn3cc(C)sc3n2)cc1 [IND-0009416] | > 10000 nM | – | – | – | – | – | – | – | – | – | – | – | – | EC50 [1, 7]: 517 nM; EC50 [1, 8]: 517 nM; EC50 (nM): Calcein (LC50 values from calcein assays) (N2a-cl3 cells [2]): MW: 242.3 EC50 (nM): ELISA: 1776 Calcein: >10,000 Western: 517; EC50 [3, 9]: 1780 nM; EC50 [3, 10]: 1780 nM
CCc1ccc(-c2cn3ccccc3n2)cc1 [IND-0009417] | > 10000 nM | – | – | – | – | – | – | – | – | – | – | – | – | EC50 [1, 7]: 4720 nM; EC50 [1, 8]: 4720 nM; EC50 (nM): Calcein (LC50 values from calcein assays) (N2a-cl3 cells [2]): MW: 222.3 EC50 (nM): ELISA: 9158 Calcein: >10,000 Western: 4715; EC50 [3, 9]: 9160 nM; EC50 [3, 10]: 9160 nM
CC(=O)c1ccc(N2CCN(Cc3cccnc3)CC2)cc1 [IND-0018629] | > 10000 nM | – | – | – | – | – | – | – | – | – | – | – | – | EC50 [1, 7]: 886 nM; EC50 [1, 8]: 886 nM; EC50 (nM): Calcein (LC50 values from calcein assays) (N2a-cl3 cells [2]): MW: 295.4 EC50 (nM): ELISA: 2943 Calcein: >10,000 Western: 886
COc1ccc(NC(=O)c2sc3nc(-c4cccs4)ccc3c2N)cc1OC [IND-0024573] | > 10000 nM | 396 nM | – | – | – | – | – | – | – | – | – | – | – | –
CSc1ccc(NC(=O)c2sc3nc(-c4cccs4)ccc3c2N)cc1 [IND-0024576] | > 10000 nM | 77 nM | – | – | – | – | – | – | – | – | – | – | – | –
Nc1c(C(=O)Nc2cc(F)ccc2F)sc2nc(-c3cccs3)ccc12 [IND-0024581] | > 10000 nM | 2060 nM | – | – | – | – | – | – | – | – | – | – | – | –
O=C(Nc1nc(-c2ccc3ccccc3c2)cs1)C1CC1 [IND-0030883] | > 10000 nM | – | – | – | – | – | – | – | – | – | – | – | – | EC50 [1, 8]: 570 nM; EC50 [3, 10]: 913 nM
COc1ccc(-c2ccc3c(N)c(C(=O)Nc4ccc5c(c4)OCCO5)sc3n2)cc1 [IND-0035833] | > 10000 nM | > 10000 nM | – | – | – | – | – | – | – | – | – | – | – | –
COc1ccc(-c2ccc3c(N)c(C(=O)Nc4ccc(F)cc4)sc3n2)cc1 [IND-0035860] | > 10000 nM | 57 nM and 59 nM | – | – | – | – | – | – | – | – | – | – | – | –
COc1ccc(-c2ccc3c(N)c(C(=O)Nc4ccc(C(C)=O)cc4)sc3n2)cc1 [IND-0037769] | > 10000 nM | 97 nM | – | – | – | – | – | – | – | – | – | – | – | –
COc1ccc(-c2ccc3c(N)c(C(=O)NCCc4ccc(OC)c(OC)c4)sc3n2)cc1 [IND-0037771] | > 10000 nM | 419 nM | – | – | – | – | – | – | – | – | – | – | – | –
COc1ccc(CNC(=O)c2sc3nc(-c4ccc(OC)cc4)ccc3c2N)cc1 [IND-0040541] | > 10000 nM | > 10000 nM | – | – | – | – | – | – | – | – | – | – | – | –
Nc1c(C(=O)Nc2ccc(F)cc2)sc2nc(-c3ccc4c(c3)OCO4)ccc12 [IND-0042063] | > 10000 nM | 613 nM | – | – | – | – | – | – | – | – | – | – | – | –
COc1cc(NC(=O)c2sc3nc(-c4cccs4)ccc3c2N)cc(OC)c1OC [IND-0042103] | > 10000 nM | > 10000 nM | – | – | – | – | – | – | – | – | – | – | – | –
COc1ccc(-c2ccc3c(N)c(C(=O)Nc4ccc(F)cc4)sc3n2)cc1OC [IND-0044746] | > 10000 nM | 227 nM | – | – | – | – | – | – | – | – | – | – | – | –
COc1ccc(Nc2nc(-c3ccc(OC)c(OC)c3)cs2)nc1 [compound 13, [4-(3,4-dimethoxyphenyl)-thiazol-2-yl]-(5-methoxypyridin-2-yl)-amine] | – | – | > 32 µM | > 32 µM | 917 nM | – | – | – | – | – | – | – | – | Microsome stability T1/2 [6]: 45 min
Cc1ccc(Nc2nc(-c3ccccc3)cs2)nc1 [compound 25, (5-Methylpyridin-2-yl)-(4-phenylthiazol-2-yl)-amine] | – | – | > 32 µM | > 32 µM | 5740 nM | 4.89 | 5.31 | 5.24 | 5.15 | 13000 nM | 4900 nM | 7880 nM | – | EC50 ([3]; read-out: Antiprion activity ScN2a-cl3 EC50, ScN2a-cl3 cells): 7880 nM; Microsome stability T1/2 [6]: 10 min
c1ccc(-c2ccc(-c3csc(Nc4cc5ccccc5cn4)n3)s2)nc1 [compound 34, Isoquinolin-3-yl-[4-(5-pyridin-2-yl-thiophen-2-yl)-thiazol-2-yl]-amine] | – | – | > 32 µM | > 32 µM | 2160 nM | 5.65 | 5.79 | 5.67 | 5.70 | 2250 nM | 1610 nM | 2010 nM | 246 to 248 °C | –
c1ccc(-c2cc(-c3csc(Nc4ccccn4)n3)on2)cc1 [compound 42, [4-(3-Phenylisoxazol-5-yl)-thiazol-2-yl]pyridin-2-yl-amine] | – | – | > 32 µM | > 32 µM | 585 nM | 6.20 | 6.22 | 6.23 | 6.22 | 629 nM | 599 nM | 604 nM | 211 to 215 °C | –
Cc1cccc(Nc2nc(-c3cc(-c4ccccc4)no3)cs2)n1 [compound 44, (6-Methylpyridin-2-yl)-[4-(3-phenylisoxazol-5-yl)-thiazol-2-yl]-amine] | – | – | > 32 µM | > 32 µM | 794 nM | 6.03 | 6.13 | 6.10 | 6.09 | 926 nM | 733 nM | 818 nM | 291 to 293 °C | –
c1ccc(-c2cc(-c3csc(Nc4ccncc4)n3)on2)cc1 [compound 45, [4-(3-Phenylisoxazol-5-yl)-thiazol-2-yl]-pyridin-4-yl-amine] | – | – | > 32 µM | > 32 µM | 6830 nM | 5.50 | 5.49 | 5.17 | 5.38 | 3160 nM | 3250 nM | 4420 nM | 269 to 270 °C | –
COc1ccc(NC(=O)c2csc(Nc3ccc(C)cn3)n2)cc1OC [compound 46, 2-(5-Methylpyridin-2-ylamino)-thiazole-4-carboxylic acid (3,4-dimethoxyphenyl)-amide] | – | – | > 32 µM | > 32 µM | 2200 nM | 5.50 | 5.72 | 5.66 | 5.62 | 3190 nM | 1930 nM | 2440 nM | 212 to 214 °C | –
COc1ccc(-c2csc(NC(=O)c3cc4ccccc4cn3)n2)cc1OC [compound 47, Isoquinoline-3-carboxylic acid [4-(3,4-dimethoxyphenyl)-thiazol-2-yl]amide] | – | – | > 10 µM | > 10 µM | 10800 nM | 5.01 | 5.41 | 4.97 | 5.13 | 9810 nM | 3930 nM | 8180 nM | 228 to 230 °C | –
COc1ccc(-c2csc(C(=O)Nc3cc4ccccc4cn3)n2)cc1OC [compound 48, 4-(3,4-dimethoxyphenyl)-thiazole-2-carboxylic acid isoquinolin-3-ylamide] | – | – | > 10 µM | > 10 µM | > 10000 nM | >4.5 | >4.5 | >4.5 | – | > 10000 nM | > 10000 nM | > 10000 nM | 196 to 202 °C | –
COc1ccc(-c2csc(N(C)c3cc4ccccc4cn3)n2)cc1OC [compound 49, [4-(3,4-dimethoxyphenyl)-thiazol-2-yl]-isoquinolin-3-yl-methyl-amine] | – | – | > 10 µM | > 10 µM | 83 nM | 6.82 | 6.71 | 7.08 | 6.87 | 152 nM | 196 nM | 144 nM | 165 to 166 °C | –
COc1ccc(-c2csc(N(C(C)=O)c3cc4ccccc4cn3)n2)cc1OC [compound 50, N-[4-(3,4-dimethoxyphenyl)-thiazol-2-yl]-N-isoquinolin-3-yl-acetamide] | – | – | > 10 µM | > 10 µM | 65 nM | 7.04 | 7.05 | 7.19 | 7.09 | 91 nM | 89 nM | 82 nM | 164 to 165 °C | –
